# According to PMC11912475 (Journal of Medicinal Chemistry, 2025):
# How the values were obtained:
# [1] = biological target: T1, GluN1-GluN2B NMDAR subtype (Homo sapiens, UniProt Q05586+Q13224); assay: FLIPR/Ca2+ assay, NMDAR GluN1-GluN2B subtype in CHO cells; format: cell-based; conditions: CHO cells, 10 μM L-glutamate and 10 μM glycine, n.d. = 50% of inhibition could not be reached at the highest concentration used
# T1 construct: host or cells: NR1-2B-CHO cells, constitutive expression
# Description: (§1) These compounds were assessed for their effects on specific heterodimeric NMDAR subtypes stably overexpressed in Chinese Hamster Ovary (CHO) cells. The subtypes tested included GluN1-GluN2A, GluN1-GluN2B, GluN1-GluN2C, and GluN1-GluN2D. CHO cells expressing each of the four NMDAR subtypes were incubated with 10 μM L-glutamate, a concentration known to elicit maximal Ca^2+ influx, serving as the stimulus. Intracellular Ca^2+ levels were subsequently measured to determine the extent of NMDAR activation.
# (§2) Assay buffer composition was 145 mM NaCl, 5 mM KCl, 2 mM CaCl2, 1 g/Liter D-(+)-glucose, and 20 mM HEPES (pH 7.3 adjusted with NaOH). Cells were plated at a density of 15.000/well in 384 black/clear bottom plates. […] Cells were kept at 30 °C in 5% CO2 incubator for 24 h. Cells were preloaded for 1 h with 2 μM Fluo-4 Ca^2+-sensitive probe, simultaneously with 2.5 mM probenecid, an inhibitor of nonspecific anion transport, and 500 μM ketamine to avoid cytotoxicity. […] Intracellular Ca^2+ level was monitored by FLIPR (excitation wavelength at 470–495 nm, emission wavelength at 515–575 nm) for 10 s before and 5 min after the addition of test items. All test items, including L-glutamate and glycine, were added simultaneously. […] FLIPR data were normalized as 100%, in the presence of 10 μM L-glutamate and 10 μM glycine, while as 0%, in the presence of assay buffer. […] Then, data were normalized by Excel 2013 (Microsoft Office) software, using wells added with 10 μM L-glutamate plus 10 μM glycine (column 23) as high control, and wells added with assay buffer only (column 24) as low control. To assess plate quality, Z′ calculations were performed in Excel. Z′ was calculated according to following equation: Z′ = 1–3(σh + σl)/|μh – μL| where μ and σ are the means and the standard deviations of the means of high (h) and low (l) controls, respectively. Compound concentration–response curves were plotted by Prism 8 GraphPad software, in the different experimental conditions (see Supporting Information). Data were analyzed using least-squares regression fitting, to fit data to a standard four parameters logistic equation using GraphPad Prism10. This regression fitting allowed the calculation of pIC50 and the corresponding SEM.
# [2] = biological target: GluN1-GluN2D NMDAR subtype (Homo sapiens, UniProt O15399+Q05586); assay: FLIPR/Ca2+ assay, NMDAR GluN1-GluN2D subtype in CHO cells; format: cell-based; conditions: CHO cells, 10 μM L-glutamate and 10 μM glycine, n.d. = 50% of inhibition could not be reached at the highest concentration used
# Description: as §1, §2
# [3] = biological target: GluN1-GluN2A NMDAR subtype (Homo sapiens, UniProt Q05586+Q12879); assay: FLIPR/Ca2+ assay, NMDAR GluN1-GluN2A subtype in CHO cells; format: cell-based; conditions: CHO cells, 10 μM L-glutamate and 10 μM glycine, n.d. = 50% of inhibition could not be reached at the highest concentration used
# Chain of GluN1-GluN2A NMDAR subtype (Q12879 23-1464, other chains not shown): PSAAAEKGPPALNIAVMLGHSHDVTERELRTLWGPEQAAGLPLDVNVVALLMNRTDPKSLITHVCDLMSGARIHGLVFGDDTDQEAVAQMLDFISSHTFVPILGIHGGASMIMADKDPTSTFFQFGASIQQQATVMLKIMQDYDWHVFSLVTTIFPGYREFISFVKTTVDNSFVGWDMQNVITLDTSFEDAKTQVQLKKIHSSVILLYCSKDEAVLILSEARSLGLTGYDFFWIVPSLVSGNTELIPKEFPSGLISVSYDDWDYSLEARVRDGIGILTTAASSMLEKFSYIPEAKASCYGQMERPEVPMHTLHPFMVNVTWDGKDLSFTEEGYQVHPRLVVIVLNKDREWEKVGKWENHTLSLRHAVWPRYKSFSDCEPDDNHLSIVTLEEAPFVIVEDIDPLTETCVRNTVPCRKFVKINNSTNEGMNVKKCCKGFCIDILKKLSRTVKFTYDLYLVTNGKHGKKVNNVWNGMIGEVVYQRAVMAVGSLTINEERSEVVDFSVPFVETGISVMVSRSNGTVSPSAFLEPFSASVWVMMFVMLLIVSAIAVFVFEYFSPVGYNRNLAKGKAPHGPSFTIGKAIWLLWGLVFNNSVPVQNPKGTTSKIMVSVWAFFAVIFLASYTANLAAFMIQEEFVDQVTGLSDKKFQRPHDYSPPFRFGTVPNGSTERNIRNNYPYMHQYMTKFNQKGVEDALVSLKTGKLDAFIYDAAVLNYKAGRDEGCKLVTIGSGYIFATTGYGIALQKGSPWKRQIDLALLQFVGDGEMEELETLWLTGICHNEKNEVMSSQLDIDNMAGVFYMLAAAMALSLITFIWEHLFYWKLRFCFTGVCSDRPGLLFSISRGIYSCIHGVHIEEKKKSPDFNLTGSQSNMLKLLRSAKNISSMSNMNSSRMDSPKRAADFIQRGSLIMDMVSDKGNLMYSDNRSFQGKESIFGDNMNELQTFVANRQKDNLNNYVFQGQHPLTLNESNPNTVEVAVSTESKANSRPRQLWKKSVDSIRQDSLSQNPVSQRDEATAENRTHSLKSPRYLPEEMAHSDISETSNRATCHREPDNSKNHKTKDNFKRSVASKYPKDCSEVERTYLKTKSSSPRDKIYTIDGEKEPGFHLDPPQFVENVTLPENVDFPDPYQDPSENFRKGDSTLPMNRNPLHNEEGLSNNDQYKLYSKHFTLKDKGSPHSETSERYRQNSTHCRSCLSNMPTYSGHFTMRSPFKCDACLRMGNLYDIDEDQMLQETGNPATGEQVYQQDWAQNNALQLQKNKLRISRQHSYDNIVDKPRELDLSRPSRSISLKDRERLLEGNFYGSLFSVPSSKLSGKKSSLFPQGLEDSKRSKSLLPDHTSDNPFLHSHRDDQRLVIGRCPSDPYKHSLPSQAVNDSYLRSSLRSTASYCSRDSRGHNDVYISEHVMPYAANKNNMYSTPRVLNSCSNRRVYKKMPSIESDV
# Description: as §1, §2
# [4] = biological target: GluN1-GluN2C NMDAR subtype (Homo sapiens, UniProt Q05586+Q14957); assay: FLIPR/Ca2+ assay, NMDAR GluN1-GluN2C subtype in CHO cells; format: cell-based; conditions: CHO cells, 10 μM L-glutamate and 10 μM glycine, n.d. = 50% of inhibition could not be reached at the highest concentration used
# Description: as §1, §2
# [5] = biological target: T2, Serotonin transporter SERT (Homo sapiens, UniProt P31645); assay: Radioligand displacement binding assay, [3H]paroxetine, SERT
# T2 construct: host or cells: HEK-293
# T2 sequence (P31645 whole entry): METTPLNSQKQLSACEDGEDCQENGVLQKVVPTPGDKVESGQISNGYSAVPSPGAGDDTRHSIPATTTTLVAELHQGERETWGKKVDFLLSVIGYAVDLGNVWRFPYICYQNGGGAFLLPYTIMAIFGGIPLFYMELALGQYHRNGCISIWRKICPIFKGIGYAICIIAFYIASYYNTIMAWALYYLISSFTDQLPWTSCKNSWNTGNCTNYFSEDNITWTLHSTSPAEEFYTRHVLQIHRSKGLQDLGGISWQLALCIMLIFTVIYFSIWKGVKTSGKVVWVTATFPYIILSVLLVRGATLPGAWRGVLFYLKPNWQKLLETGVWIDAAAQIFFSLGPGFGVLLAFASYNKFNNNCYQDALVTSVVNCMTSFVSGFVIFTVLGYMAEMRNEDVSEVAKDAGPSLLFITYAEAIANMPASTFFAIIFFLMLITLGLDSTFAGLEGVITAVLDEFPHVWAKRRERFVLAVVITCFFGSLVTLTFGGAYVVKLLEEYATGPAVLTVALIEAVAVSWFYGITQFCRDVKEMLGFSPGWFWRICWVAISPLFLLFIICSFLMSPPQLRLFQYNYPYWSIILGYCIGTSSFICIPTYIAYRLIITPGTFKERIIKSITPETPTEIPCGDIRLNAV
# [6] = biological target: T3, Serotonin 5-HT2C (Homo sapiens, UniProt P28335); assay: Radioligand displacement binding assay, [3H]mesulergine, 5-HT2C
# T3 construct: host or cells: CHO-K1
# T3 sequence (P28335 33-458): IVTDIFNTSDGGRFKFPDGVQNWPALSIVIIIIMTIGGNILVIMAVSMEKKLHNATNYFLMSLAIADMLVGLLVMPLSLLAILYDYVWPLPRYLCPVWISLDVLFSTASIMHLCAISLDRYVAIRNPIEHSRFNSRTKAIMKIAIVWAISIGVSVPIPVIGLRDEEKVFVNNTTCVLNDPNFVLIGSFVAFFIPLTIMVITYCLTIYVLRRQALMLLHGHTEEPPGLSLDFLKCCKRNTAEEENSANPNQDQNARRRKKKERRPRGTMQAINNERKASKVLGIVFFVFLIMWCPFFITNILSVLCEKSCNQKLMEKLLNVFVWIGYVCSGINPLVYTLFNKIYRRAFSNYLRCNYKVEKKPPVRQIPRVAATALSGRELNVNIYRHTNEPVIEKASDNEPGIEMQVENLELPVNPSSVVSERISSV
# [7] = biological target: T4, Serotonin 5-HT1A (Homo sapiens, UniProt P08908); assay: Radioligand displacement binding assay, [3H]8-OH-DPAT, 5-HT1A
# T4 construct: host or cells: CHO-K1
# T4 sequence (P08908 1-422): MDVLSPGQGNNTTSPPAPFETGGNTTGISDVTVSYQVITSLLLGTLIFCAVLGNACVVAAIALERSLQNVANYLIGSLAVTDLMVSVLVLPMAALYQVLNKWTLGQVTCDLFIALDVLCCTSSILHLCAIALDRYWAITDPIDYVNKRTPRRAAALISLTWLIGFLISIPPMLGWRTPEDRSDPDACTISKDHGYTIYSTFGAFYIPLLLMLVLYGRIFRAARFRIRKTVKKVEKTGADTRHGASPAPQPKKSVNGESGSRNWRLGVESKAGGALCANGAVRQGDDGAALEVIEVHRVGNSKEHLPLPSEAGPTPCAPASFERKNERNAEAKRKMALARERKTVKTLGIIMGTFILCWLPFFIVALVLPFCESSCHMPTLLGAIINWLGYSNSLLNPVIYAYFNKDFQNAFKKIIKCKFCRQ
# [8] = biological target: T5, Serotonin 5-HT7 (Homo sapiens, UniProt P34969); assay: Radioligand displacement binding assay, [3H]LSD, 5-HT7
# T5 construct: host or cells: CHO-K1
# T5 sequence (P34969 whole entry): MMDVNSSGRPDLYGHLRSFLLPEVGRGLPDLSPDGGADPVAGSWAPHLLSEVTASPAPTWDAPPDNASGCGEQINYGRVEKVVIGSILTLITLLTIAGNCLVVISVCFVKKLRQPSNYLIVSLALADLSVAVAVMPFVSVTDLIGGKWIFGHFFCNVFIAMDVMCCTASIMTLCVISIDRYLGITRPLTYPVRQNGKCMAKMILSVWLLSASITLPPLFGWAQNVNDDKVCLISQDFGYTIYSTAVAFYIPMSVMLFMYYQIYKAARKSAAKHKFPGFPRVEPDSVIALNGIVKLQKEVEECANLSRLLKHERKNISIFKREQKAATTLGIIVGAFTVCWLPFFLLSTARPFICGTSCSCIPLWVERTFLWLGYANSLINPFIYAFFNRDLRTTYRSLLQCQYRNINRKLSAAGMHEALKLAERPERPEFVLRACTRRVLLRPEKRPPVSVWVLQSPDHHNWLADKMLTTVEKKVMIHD
# [9] = biological target: T6, Muscarinic M5 (Homo sapiens, UniProt P08912); assay: Radioligand displacement binding assay, [3H]N-methylscopolamine, M5
# T6 construct: host or cells: CHO-K1
# T6 sequence (P08912 1-532): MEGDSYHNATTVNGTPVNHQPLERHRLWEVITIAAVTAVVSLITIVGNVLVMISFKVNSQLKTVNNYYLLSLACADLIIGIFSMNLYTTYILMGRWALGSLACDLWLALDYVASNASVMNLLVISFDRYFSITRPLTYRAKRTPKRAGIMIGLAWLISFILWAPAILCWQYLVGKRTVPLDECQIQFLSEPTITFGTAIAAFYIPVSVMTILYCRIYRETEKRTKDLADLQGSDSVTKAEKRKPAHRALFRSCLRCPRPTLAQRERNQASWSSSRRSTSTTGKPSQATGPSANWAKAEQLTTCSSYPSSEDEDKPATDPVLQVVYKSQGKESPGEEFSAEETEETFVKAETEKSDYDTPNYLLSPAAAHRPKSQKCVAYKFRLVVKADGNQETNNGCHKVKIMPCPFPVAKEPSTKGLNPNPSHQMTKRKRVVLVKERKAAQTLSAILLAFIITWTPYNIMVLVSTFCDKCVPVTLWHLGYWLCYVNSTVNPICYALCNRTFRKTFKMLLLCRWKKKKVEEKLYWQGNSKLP
# [10] = biological target: T7, Norepinephrine transporter NET (Homo sapiens, UniProt P23975); assay: Radioligand displacement binding assay, [125I]RTI-55, NET
# T7 construct: host or cells: MDCK
# T7 sequence (P23975 whole entry): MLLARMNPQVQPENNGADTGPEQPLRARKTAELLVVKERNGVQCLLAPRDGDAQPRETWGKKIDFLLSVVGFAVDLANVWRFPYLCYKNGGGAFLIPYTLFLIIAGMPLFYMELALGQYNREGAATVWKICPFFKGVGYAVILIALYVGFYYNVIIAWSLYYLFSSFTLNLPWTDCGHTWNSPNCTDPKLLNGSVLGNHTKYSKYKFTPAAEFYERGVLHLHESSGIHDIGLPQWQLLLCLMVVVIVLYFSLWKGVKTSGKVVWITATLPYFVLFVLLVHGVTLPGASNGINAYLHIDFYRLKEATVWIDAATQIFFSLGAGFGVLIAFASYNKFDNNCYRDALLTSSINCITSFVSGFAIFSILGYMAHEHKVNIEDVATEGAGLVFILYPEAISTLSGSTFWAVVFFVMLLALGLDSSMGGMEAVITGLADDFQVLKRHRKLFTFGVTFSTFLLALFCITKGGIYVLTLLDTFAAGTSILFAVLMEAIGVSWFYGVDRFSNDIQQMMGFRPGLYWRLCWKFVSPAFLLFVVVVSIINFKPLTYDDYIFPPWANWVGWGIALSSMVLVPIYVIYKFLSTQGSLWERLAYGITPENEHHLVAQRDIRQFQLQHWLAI
# [11] = biological target: T8, Serotonin 5-HT2A (Homo sapiens, UniProt P28223); assay: Radioligand displacement binding assay, [3H]ketanserin, 5-HT2A
# T8 construct: host or cells: CHO-K1
# T8 sequence (P28223 whole entry): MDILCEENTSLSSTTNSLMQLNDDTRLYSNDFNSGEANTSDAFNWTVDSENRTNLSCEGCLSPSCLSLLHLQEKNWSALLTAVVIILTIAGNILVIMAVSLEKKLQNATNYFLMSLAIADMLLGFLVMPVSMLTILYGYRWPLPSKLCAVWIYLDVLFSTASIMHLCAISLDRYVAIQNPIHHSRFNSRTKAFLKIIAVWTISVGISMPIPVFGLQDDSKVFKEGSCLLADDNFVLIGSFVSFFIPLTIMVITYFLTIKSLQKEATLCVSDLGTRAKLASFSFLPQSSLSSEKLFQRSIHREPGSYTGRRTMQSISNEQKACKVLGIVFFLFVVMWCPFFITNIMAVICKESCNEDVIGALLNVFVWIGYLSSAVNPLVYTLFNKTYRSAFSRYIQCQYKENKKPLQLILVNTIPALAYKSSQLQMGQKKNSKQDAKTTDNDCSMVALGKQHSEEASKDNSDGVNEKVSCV
# [12] = biological target: T9, Serotonin 5-HT5A (Homo sapiens, UniProt P47898); assay: Radioligand displacement binding assay, [3H]LSD, 5-HT5A
# T9 construct: host or cells: CHO-K1
# T9 sequence (P47898 whole entry): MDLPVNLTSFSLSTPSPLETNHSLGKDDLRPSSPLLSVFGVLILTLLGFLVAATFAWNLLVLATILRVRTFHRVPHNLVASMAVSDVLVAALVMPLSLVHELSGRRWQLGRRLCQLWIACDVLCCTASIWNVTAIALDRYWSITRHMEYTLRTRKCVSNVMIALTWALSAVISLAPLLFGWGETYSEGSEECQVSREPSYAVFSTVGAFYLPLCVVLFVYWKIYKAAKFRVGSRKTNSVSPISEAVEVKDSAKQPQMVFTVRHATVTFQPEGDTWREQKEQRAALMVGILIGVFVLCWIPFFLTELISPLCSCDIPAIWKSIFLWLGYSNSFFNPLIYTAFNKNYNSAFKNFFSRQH
# [13] = biological target: T10, Sigma σ1 (Homo sapiens, UniProt Q99720); assay: Radioligand displacement binding assay, [3H]pentazocine, sigma σ1
# T10 construct: Sigma σ1; Source: Human Jurkat cells; host or cells: Jurkat
# T10 sequence (Q99720 whole entry): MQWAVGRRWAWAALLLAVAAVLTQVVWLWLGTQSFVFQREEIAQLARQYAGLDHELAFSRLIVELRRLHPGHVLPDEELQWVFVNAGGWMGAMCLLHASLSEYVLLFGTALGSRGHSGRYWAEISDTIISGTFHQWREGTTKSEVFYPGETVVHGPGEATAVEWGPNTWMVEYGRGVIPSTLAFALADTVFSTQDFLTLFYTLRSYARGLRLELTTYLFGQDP
# [14] = biological target: T11, Histamine H1 (Homo sapiens, UniProt P35367); assay: Radioligand displacement binding assay, [3H]pyrilamine, H1; conditions: for displacement at the histamine H1 receptor, in words: concentration not given
# T11 construct: host or cells: CHO-K1
# T11 sequence (P35367 whole entry): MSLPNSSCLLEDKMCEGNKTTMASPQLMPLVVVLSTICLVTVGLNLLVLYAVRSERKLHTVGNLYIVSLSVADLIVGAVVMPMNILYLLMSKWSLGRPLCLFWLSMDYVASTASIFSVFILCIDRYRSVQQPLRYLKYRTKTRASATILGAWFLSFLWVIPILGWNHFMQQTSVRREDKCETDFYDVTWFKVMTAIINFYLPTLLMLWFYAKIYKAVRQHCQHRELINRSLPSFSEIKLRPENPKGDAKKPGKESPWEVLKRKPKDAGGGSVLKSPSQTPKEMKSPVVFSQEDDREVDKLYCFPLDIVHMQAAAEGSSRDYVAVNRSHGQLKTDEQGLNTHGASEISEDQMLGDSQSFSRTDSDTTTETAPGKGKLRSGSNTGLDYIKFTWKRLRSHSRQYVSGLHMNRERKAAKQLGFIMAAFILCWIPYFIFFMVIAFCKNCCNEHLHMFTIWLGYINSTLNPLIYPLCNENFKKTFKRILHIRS
# [15] = tested on: Glutamate, NMDA, Phencyclidine binding site; assay: Radioligand displacement binding assay, [3H]TCP, NMDA; design: species or system Wistar rat
# [16] = biological target: T12, μ opioid receptor (MOP) (Homo sapiens, UniProt P35372); assay: biochemical; format: binding; conditions: read-out: % inhibition of binding, MOP
# T12 construct: host or cells: CHO-K1
smiles,measurement,setting,value
"C[C@@H](CC(C(=O)O)(c1ccccc1)c1ccccc1)N(C)C [(S)-DDVA, 4-(Dimethylamino)-2,2-diphenylpentanoic acid]",IC50,[1]; read-out: pIC50 (mean ± SEM) GluN1-GluN2B (converted),> 100 µM
same,IC50,[2]; read-out: pIC50 (mean ± SEM) GluN1-GluN2D (converted),> 100 µM
same,IC50,[3]; read-out: pIC50 (mean ± SEM) GluN1-GluN2A (converted),> 100 µM
same,IC50,[4]; read-out: pIC50 (mean ± SEM) GluN1-GluN2C (converted),> 100 µM
"C[C@]12N[C@H](Cc3ccccc31)c1ccccc12 [(+)-MK-801, reference compound]",pIC50 (mean ± SEM) GluN1-GluN2B,[1],7.2 ± 0.067
same,pIC50 (mean ± SEM) GluN1-GluN2D,[2],6.1 ± 0.58
same,pIC50 (mean ± SEM) GluN1-GluN2C,[4],6.2 ± 0.064
"CCC(=O)C(C[C@H](C)N(C)C)(c1ccccc1)c1ccccc1 [(S)-methadone, 6-(Dimethylamino)-4,4-diphenylheptan-3-one, reference compound]",inhibition at 1 µM,[5],21%
same,inhibition at 10 µM,[5],74%
same,inhibition at 0.3 µM,[6],30%
same,inhibition at 3 µM,[6],77%
same,inhibition at 0.3 µM,[7],-2%
same,inhibition at 3 µM,[7],2%
same,inhibition at 1 µM,[8],12%
same,inhibition at 10 µM,[8],58%
same,inhibition at 1 µM,[9],25%
same,inhibition at 10 µM,[9],73%
same,inhibition at 1 µM,[10],5%
same,inhibition at 10 µM,[10],17%
same,inhibition at 0.3 µM,[11],22%
same,inhibition at 3 µM,[11],72%
same,"activity on 5-HT2A, in words",[11]; concentration not given,appreciable activity
same,inhibition at 1 µM,[12],24%
same,inhibition at 10 µM,[12],70%
same,inhibition at 0.3 µM,[13],23%
same,inhibition at 3 µM,[13],70%
same,inhibition at 10 µM,[14],50%
same,inhibition at 30 µM,[14],73%
same,"displacement at the histamine H1 receptor, in words",[14],significant displacement percentages
"CC[C@@H](O)C(C[C@H](C)N(C)C)(c1ccccc1)c1ccccc1 [(3R,6S)-ML, (3R,6S)-6-(dimethylamino)-4,4-diphenylheptan-3-ol]",pIC50 (mean ± SEM) GluN1-GluN2A,[3],4.0 ± 0.23
"CCC1=N[C@H](C)CC1(c1ccccc1)c1ccccc1 [(R)-EMDP, 5-Ethyl-2-methyl-4,4-diphenyl-3,4-dihydro-2H-pyrrole]",inhibition at 1 µM,[5],3%
same,inhibition at 10 µM,[5],7%
same,inhibition at 0.3 µM,[6],2%
same,inhibition at 3 µM,[6],7%
same,pIC50 (mean ± SEM) GluN1-GluN2A,[3],4.8 ± 0.088
same,inhibition at 0.3 µM,[7],0%
same,inhibition at 3 µM,[7],7%
same,inhibition at 1 µM,[8],0%
same,inhibition at 10 µM,[8],8%
same,inhibition at 1 µM,[9],6%
same,inhibition at 10 µM,[9],3%
same,"% inhibition of binding, NMDA",[15]; 1 μM,12%
same,"% inhibition of binding, NMDA",[15]; 10 μM,4%
same,inhibition at 1 µM,[10],-5%
same,inhibition at 10 µM,[10],27%
same,inhibition at 0.3 µM,[11],4%
same,inhibition at 3 µM,[11],14%
same,inhibition at 1 µM,[12],1%
same,inhibition at 10 µM,[12],0%
same,inhibition at 0.3 µM,[16]; 0.3 μM,-4%
same,inhibition at 3 µM,[16]; 3 μM,8%
same,inhibition at 0.3 µM,[13],11%
same,inhibition at 3 µM,[13],49%
same,inhibition at 10 µM,[14],24%
same,inhibition at 30 µM,[14],62%
same,"displacement at the histamine H1 receptor, in words",[14],significant displacement percentages
